# Results: patent US20250051266A1, “Novel GLV-Phenolamide: Biosynthesis and Function in Protecting Plants from Herbivore Attack” (Max-Planck-Gesellschaft zur Förderung der Wissenschaften …, priority 2021, published 2025)
# Entries after “also recorded” stand apart in the source; their conditions may differ.
# Experiments:
# Empoasca decipiens = test: In vitro Empoasca non-choice (direct feeding) assay on artificial diet; type: in vivo; settings: physiologically relevant concentrations (CoP 7 μM, CP 100 μM, FP 10 μM) in 10% glucose solution
# Description: FIG. 18 Mortality rates of in vitro Empoasca non-choice assays (n=4, 25 Empoasca leafhoppers per replicate) in which Empoasca were fed for 6 h with either 1 μM m/z 347.19 synthesized by using NaPPO1/NaPPO2 and CP and Z3H and diluted in 10% glucose solution or with 10% glucose as control (top). Empoasca in planta choice assays (n=8) conducted with VIGS plants of EV, PPO1, PPO2 and AT1 (bottom).
# To test if CPH is responsible for Empoasca resistance, E. decipiens were fed with physiologically relevant concentrations of 1 μM (estimated from field-collected elicited leaves) of NMR-confirmed CPH in diets containing 10% glucose in vitro. […] NaAT1 expression was silenced in N. attenuata plants using VIGS, which disrupted the production of both CP and the CPH (Li et al., Proc Natl Acad Sci USA 112, E4147-4155 (2015)) (FIG. 13).
# Empoasca feeding assays: The survival rate of Empoasca feeding on artificial diet (10% 5 sucrose in water) supplemented with caffeoylputrescine (CP, 100 μM), coumaroylputrescine (CoP, 7 μM), feruloylputrescine (FP, 10 μM), or the m/z 347.19 hexenyl derivative of CP (CPH, 1 μM) was recorded every 1 h overnight. The artificial feeding devices consisted of a 50-mL Falcon tube with a 7-mm hole drilled into the conical bottom through which the leafhoppers were aspi-rated into the tube and which then was covered with Parafilm punctured with needles to create ventilation holes. The large opening of the Falcon tube was covered with a double layer of Parafilm containing the liquid diet (100 μL). The artificial feeding devices were placed upside down with the liquid diet side down on a White Light Box (STRATAGENE) to provide bottom-light illu-mination.
# NaPPO1 = target: T1, NaPPO1 (Nicotiana attenuata, UniProt A0A1J6JLI9); test: In vitro enzyme assay, substrate specificity of NaPPO1; type: biochemical; settings: incubated with NaPPO1 and (Z)-3-hexenal
# T1 sequence (A0A1J6JLI9 1-596): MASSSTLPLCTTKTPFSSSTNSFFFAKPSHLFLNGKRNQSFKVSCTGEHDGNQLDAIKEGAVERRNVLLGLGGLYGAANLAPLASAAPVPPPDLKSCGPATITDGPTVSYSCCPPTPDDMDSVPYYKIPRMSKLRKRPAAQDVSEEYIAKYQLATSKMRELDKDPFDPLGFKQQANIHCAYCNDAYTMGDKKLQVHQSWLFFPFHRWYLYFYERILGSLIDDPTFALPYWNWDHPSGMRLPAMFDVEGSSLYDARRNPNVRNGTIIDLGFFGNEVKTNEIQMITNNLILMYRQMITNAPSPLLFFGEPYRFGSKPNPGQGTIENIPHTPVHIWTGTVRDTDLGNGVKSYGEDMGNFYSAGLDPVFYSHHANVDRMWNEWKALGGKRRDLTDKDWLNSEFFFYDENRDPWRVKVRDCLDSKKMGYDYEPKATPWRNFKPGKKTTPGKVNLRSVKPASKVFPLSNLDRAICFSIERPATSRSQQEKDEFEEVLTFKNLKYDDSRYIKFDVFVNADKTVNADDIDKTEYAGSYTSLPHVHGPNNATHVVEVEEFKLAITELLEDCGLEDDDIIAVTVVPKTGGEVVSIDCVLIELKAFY
# Description: Extracted ion chromatograms (EIC) for doubly charged CP dimer (m/z 250.13) and m/z 347.19 in E. coli expressing NaPPO1 and NaPPO2 with CP and Z3H or (E)-2-hexenal. Compounds 1, 2, 3, 4 denote isomers of CP dimer; compounds 5, 6 denote isomers of m/z 347.19.
# FIG. 53 Substrate specificity of NaPPO1 and NaPPO2 enzymes. Overlay of total ion chromatograms (TIC) of enzyme assays for authentic chlorogenic acid (CGA std), N-coumaroylputrescine (CoP std), (Z)-3-hexenal or (E)-2-hexenal with purified NaPPO1/NaPPO2 from E. coli. Compounds 1 and 2 denote CGA and CoP; 3 and 4 denote contamination peaks from (Z)-3-hexenal and CoP standards, respectively.
# To test this hypothesis, purified NaPPO1, NaPPO2 and NaBBL2 proteins with N-terminal hexahistidine tags after expression in Escherichia coli were isolated (FIGS. 44-45). Incubation of either NaPPO1 or NaPPO2 (NaPPO1/2) with CP and (Z)-3-hexenal yielded a m/z 347.19 peak with identical MS/MS spectrum and retention time as the m/z 347.19 induced in N. attenuata leaves (FIG. 46). Additionally, by-products of doubly charged CP dimers at m/z 250.13 ([M+2H]2+, C26H36N4O62+) which are not detected in oral secretion-induced leaves of N. attenuata WT (Data 2) were also produced in vitro (FIG. 16 and FIG. 47). These doubly charged CP dimers were only produced when the quantities of the (Z)-3-hexenal substrate were lower than those of the CP substrate in vitro. […]
# In vitro assays of NaPPO1, NaPPO2, and NaBBL2: NaPPO1, NaPPO2, and NaBBL2 enzyme activity assays were performed by incubating 100 μg of the purified recombinant protein in 84 mM acetate buffer (pH 4.8) containing 20 mM (E)-N-caffeoylputrescine (BOC Sciences, catalogue #: B0005-053482) and 1 M cis-3-hexenal (Sigma, catalogue #: W256102-SAMPLE-K) or trans-2-hexenal (Sigma, catalogue #: W256005-1KG-K). During incubation of the enzyme reactions at 8° C., 1 μL of the reactions buffer was directly injected and analyzed by LC-MS every h to detect products. […]
substance,measurement,setting,value
N-coumaroylputrescine [CoP],changes in mortality rates of E. decipiens compared to glucose controls,Empoasca decipiens,no significant changes in mortality rates; also recorded: not affecting leafhopper behavior or performance
same,acceptance as substrate (new products),NaPPO1,not accepted as substrates
